{
  "source": "patent US20090298745A1",
  "about": "“Treatment of Diabetes with Glycogen Phosphorylase Inhibitors” (priority 2004, published 2009)",
  "test_system": "Diabetic ZDF male rats",
  "experiment": "In vivo animal model to mimic human night time dosing",
  "design": "species or system rat",
  "settings": "30 mg/kg po via gavage in 10% Gelucire 44/14; 360 min after dosing at 14 weeks old, from start of dosing (T=0); p=0.019 versus vehicle controls",
  "experimental": "Diabetic ZDF male rats (Charles River) were allowed free access to tap water and enriched pelleted chow diet (M-Z Ereich; Art. No. V1185-000; Ssniff R Spezialdiäten GmbH, D-59494, Soest Germany) ad-libitum for 4 weeks until they were 8 weeks old. The animals were housed under a 16 hr/8 hr:dark/light phase (lights on 09:00). As the animals progressed to the diabetic state, weekly blood glucose and insulin measurement were made at the end of the light period (17:00 h) and a blood glucose measurement made at the end of the active (dark) cycle (08:30-09:00 h). When the animals had reached 8 weeks of age, they were trained on a meal paradigm, by removal of food during the light period (09:00-17:00 h), which was maintained for the remainder of the study. After the animals had reached 12 weeks of age, and their diabetic status had been confirmed using the fasted glucose measurements (>8 mM), the animals were divided into groups. […] Blood glucose and insulin concentrations were measured by the glucose oxidase method (Super G Glucose analyzer; Dr. Müller Gerätebau, Freital, Germany) and Elisa technique, respectively, at T=−45 min, before dosing (08:15 h) and then at T=0 min ([…]), T=45 min (09:45 h), T=90 min (10:30 h), T=150 min (11:20 h) and T=360 min (15:00 h) after each weekly successive test compound dose.",
  "data": [
    {"compound": "O=C(N[C@@H](Cc1ccc(F)cc1)C(=O)N1CCC(O)CC1)c1cc2cc(Cl)ncc2[nH]1", "note": "[Example 3, 5-chloro-1H-pyrrolo[2,3-c]pyridine-2-carboxylic acid [1-(S)-(4-fluorobenzyl)-2-(4-hydroxypiperidin-1-yl)-2-oxoethyl]amide]", "values": [
      {"measurement": "reduction in blood glucose concentration (mean+/−S.D.)", "value": "6.28 ± 2.47", "unit": "mM"}
    ]}
  ]
}
